# Data taken from patent publication US12629352B2, “Methods and uses for apelin receptor agonists” (RESEARCH TRIANGLE INSTITUTE, priority 2019, dated 2026).
# System: bleomycin-induced pulmonary fibrosis in male C57BL/6 mice
# Experiment: 21-day bleomycin-induced lung fibrosis model, prophylactic BID oral treatment
# Assay type: in vivo
# Conditions: for Ashcroft score index: FIG. 15A, BID treatment; for absolute lung weights / absolute lung weights vs vehicle: day 21 post-bleomycin; for absolute lung weights: ±SEM, significantly lower than vehicle (p<0.05)
# Procedure: Bleomycin is widely used to induce pulmonary fibrosis in rodents in order to study potential novel therapies for fibrosis. This study was designed to evaluate the prophylactic efficacy of test compound, Compound 1, also referred to as SRRM-423, in a 21-day model of bleomycin-induced pulmonary fibrosis in male C57BL/6 mice.
# Prophylactic treatment of three different doses of 30 mg/kg, 15 mg/kg, and 7.5 mg/kg of Compound 1 was commenced a day before induction of disease and continued until the end of the study, namely 21 days after bleomycin administration. Treatment was administered twice daily via oral gavage.
# Mice were administered bleomycin (Catalog number C-61703-323-22, lot number D011495AA, Hospira) via oropharyngeal route to induce lung fibrosis.
# Bleomycin-induced animals were treated twice daily with either of the three different doses of test compound Compound 1 or pirfenidone starting from a day prior to disease induction and continued till study termination. Study animals were harvested on day 21 post-bleomycin administration. As an end point analysis, fibrosis symptoms such as body weight, absolute lung weight, lung weight normalized to body weight, and total leukocytes in BAL fluid were evaluated and compared with vehicle-treated mice.
# On day 0, all mice in groups 2-6 received a 1.5 U/kg oropharyngeal administration of bleomycin to induce pulmonary fibrosis. Animals in group 1 were not administered bleomycin, but instead received a single dose of normal saline via the oropharyngeal route, and were considered sham control mice.
# Dosing was initiated one day prior to induction of disease. Animals were dosed twice daily orally with Compound 1 and Pirfenidone and treatment was continued until 21 days after bleomycin administration. Animals from group 2 were treated with vehicle (0.5% methylcellulose). Animals in groups 3, 4 and 5 received Compound 1 at 30, 15, and 7.5 mg/kg respectively, and animals in group 6 received Pirfenidone 100 mg/kg.
# Surviving animals were euthanized 21 days post bleomycin administration. Animals were weighed, then blood and lungs were collected. Blood was processed for plasma. Lungs, were weighed, flushed with HBSS for BAL collection, and fixed in 10% NBF. Supernatant from BAL fluid was frozen while the pellet was used for total leukocyte cell count.
# In order to induce pulmonary fibrosis, mice in groups 2-6 were administered 1.5 U/kg bleomycin (Catalog number C-61703-323-22, lot number D011495AA, Hospira) in 70 μl via oropharyngeal administration. Animals from group 1 were administered 70 μl of saline by the oropharyngeal route, instead of bleomycin, and served as sham controls.
# Compound 1 was provided as a trifluoroacetic acid (TFA) salt and requires a salt correction of 1.0654. All dose amounts were calculated as the free base content of the test article using the correction factor. Vehicle used for formulation of test compound, Compound 1, was 0.3% Tween 80 and 1% N-methylpyrollidinone in 0.5% aqueous methylcellulose. Vehicle and dosing formulation of Compound 1 was prepared fresh weekly. Dosing formulations and vehicles were stored at 4±2° C. protected from heat and light. The expiration date for the test article dosing solutions were set at 7 days after preparation. Pirfenidone was sourced from a vendor and formulated in the same vehicle as Compound 1, i.e., 0.3% Tween 80 and 1% N-methylpyrollidinone in 0.5% aqueous methylcellulose.
# Animals were dosed twice daily with volume of 100 μl/dose by oral gavage from a day prior to disease induction and same treatment was continued till study termination, i.e., day 21 post bleomycin administration. Surviving animals were harvested within 2 to 4 hours post final dosing on day 21.
# The lungs from each animal were harvested following Aragen's Standard Operating Procedure (WA-004-01). Each lung was dissected from the animal and weighed. The BAL fluid was collected by lavaging the lung twice with 0.5 ml Hanks Balanced Salt Solution (HBSS, VWR Radnor, PA). […]
# [1] = lung histopathology, dose not specified
compound,measurement,setting,value
"O=C(O)C[C@H](CCN1CCCC(F)(F)C1)NC(=O)c1cc(-c2ccccc2C(F)(F)F)n(C2CCCC2)n1 [Compound 1, (3S)-3-({1-cyclopentyl-5-[2-(trifluoromethyl)phenyl]-1H-pyrazol-3-yl}formamido)-5-(3,3-difluoropiperidin-1-yl)pentanoic acid]",fibrosis according to Ashcroft scores,"30 mg/kg BID, compared to induced controls and to 100 mg/kg Pirfenidone",greatest reduction in fibrosis
same,fibrosis according to Ashcroft scores,"15 or 7.5 mg/kg BID, compared to induced controls, similar to 100 mg/kg Pirfenidone BID",substantially less fibrosis
same,average total leukocyte count in BAL fluid,"30, 15 and 7.5 mg/kg BID, day 21, vs vehicle group 2, statistical significance not reached",reduced the average leukocyte count in BAL fluid in all test groups
same,α-SMA positive lung tissue as a percent of the total lung parenchyma,">7.5 mg/kg, FIG. 15B, compared to induced controls, no clear relationship to the dose",substantially less α-SMA positive lung tissue
same,Ashcroft score index,[1],reduced Ashcroft score index
same,Ashcroft score of lung section (Masson's trichome staining),"FIG. 16, 30 mg mpk + bleomycin, bleomycin/no treatment similar to score 5",~2
same,α-SMA positive staining of lung section,"FIG. 17, 30 mpk + bleomycin, compared to induced controls",substantially less compared to induced controls
same,absolute lung weights,"group 3, 30 mg/kg BID oral gavage",310 mg
same,absolute lung weights vs vehicle,"group 4, 15 mg/kg BID oral gavage",Statistical significance was not reached
same,body weight,"group 4, 15 mg/kg BID, recorded three times a week to day 21",lost more weight compared to other groups
same,absolute lung weights,"group 5, 7.5 mg/kg BID oral gavage",313 mg
same,"fibrosis symptoms (body weight, lung weight, lung weight index, total leukocyte counts, myofibroblast proliferation)",highest dose of 30 mg/kg BID,significantly ameliorated fibrosis symptoms
same,proliferation of activated myofibroblasts (antibody to α-SMA),[1],reduced proliferation of activated myofibroblasts
same,absolute and normalized lung weights,"prophylactic BID treatment, doses not distinguished",reduced absolute and normalized lung weights
"Cc1ccc(=O)n(-c2ccccc2)c1 [Pirfenidone, reference compound]",Ashcroft score index,[1],reduced Ashcroft score index
same,absolute lung weights vs vehicle,"group 6, 100 mg/kg BID oral gavage",Statistical significance was not reached
